Source: patent US11674967B2, “Method of identifying potential inhibitors of APO TNFα trimers” (UCB BIOPHARMA SRL, priority 2015, dated 2023)

How the values were obtained:
[1] = tested on: TNFα-induced IL-8 production; assay: TNFα-induced IL-8 production by human monocytes; format: cell-based; conditions: TNFα ~1 ng/ml, 18 hours
Protocol: Venous blood from healthy donors was collected by venupuncture into sodium/heparin containing tubes (BD Biosciences). Peripheral blood mononuclear cells (PBMC) were isolated by density gradient centrifugation with Ficoll Paque (Amersham Biosciences). Briefly, 10 mL of blood was diluted 1:1 (v/v) with RPMI 1640 (Gibco) and carefully layered onto 20 mL Ficoll Paque. Cells were spun down for 30 minutes (min) at 470 g, the PBMC collected, washed once in RPMI 1640 and any remaining contaminating erythrocytes lysed in erythrocyte lysis buffer (1 g/L KHCO3, 8.3 g/L NH4Cl, 0.0372 g/L EDTA). Isolation of monocytes from the PBMC was performed using CD14+ Magnetic MicroBeads (Miltenyi Biotec) according to the manufacturer's instructions. Briefly, PBMC were resuspended in Dulbecco's modified Eagle's medium containing 5% BSA (Sigma) and 2 mM EDTA (Sigma) at 1×10^7 cells/ml. […] of CD14 MicroBeads per 10^7 total cells were incubated for 15 min at room temperature. The magnetic separation was performed using a LS column (Miltenyi Biotec). […]
Human IL-8 was measured in the cell culture supernatants using enzyme-linked immunosorbent assay (ELISA) kits from R&D Systems Ltd. according to the manufacturer's instructions. […] Plates were read at a wavelength of 630 nm with correction at 470 nm.

TNF-R1 = assay: HEK-Blue NF-κB reporter gene counterscreen, activating TNF-R1 antibody stimulus; format: cell-based, human; conditions: antibody 300 ng/mL
Protocol: (§1) Stimulation of HEK-293 cells by TNF-alpha leads to activation of the NF-kB pathway. The reporter cell line used to determine TNF alpha activity was purchased from Invivogen. HEK-Blue™ CD40L, is a stable transfectant expressing SEAP (secreted alkaline phosphatase) under the control of the IFN-beta minimal promoter fused to 5 NF-kB binding sites. Secretion of SEAP by these cells is stimulated in a concentration dependent manner by TNF-alpha (0.5 ng/ml), IL-1-beta (0.5 ng/ml) and an activating anti-human TNFR1 antibody (300 ng/ml).
(§2) Compounds were diluted from 10 mM DMSO stocks (final assay concentration 0.3%) to generate a 10 point 3 fold serial dilution curve (30,000 nM to 2 nM final concentration). They were mixed with stimulating ligand for 1 hour in a 384 well microtitre plate. Freshly thawed and washed cells were added to the compound/stimulus mixture and further incubated for 18 hours. SEAP activity was determined in the supernatant using the colorimetric substrate Quanti-Blue™ (Invivogen).
(§3) Percentage inhibitions for compound dilutions were calculated between a DMSO control and maximum inhibition (by excess control compound) and an IC50 calculated using xlfit (4 parameter logistic model) in Activity Base.
(§4) The specific activity of the compound of formula (15) against the TNF-alpha response was compared to that seen with the counterscreens (IL-1beta and anti-human TNFR1 antibody).

IL-1β = assay: HEK-Blue NF-κB reporter gene counterscreen, IL-1β stimulus; format: cell-based; conditions: IL-1β 0.5 ng/mL
Protocol: as §1, §2, §3, §4

TNFR2 = assay: Membrane TNF - TNFR2 signalling (NS0-mTNF cells with expanded primary human T cells); format: cell-based; conditions: compound bound to membrane TNFα on NS0 cells
Protocol: A murine B cell line (NS0-mTNF) stably expressing non-cleavable human membrane TNF due to a mutation at the TACE cleavage site was used to trigger TNFR2 signalling in PHA-L and IL-2 expanded primary human T cells. […] TNFR1 was also present on these cells but was blocked using a UCB mouse anti-human-TNFR1 antibody 5R16.
NS0-mTNF cells were cultured with 10 μM NCEs for 1 hour to allow binding of Compounds to membrane TNF. T cells were then mixed with the NS0-mTNF cells and following a brief spin to allow cell-cell contact, cells were incubated for 5 min and then lysed in lysis buffer. […] First TRAF-2 recruitment to the TNFR2 receptor was measured in Co-immunoprecipitation experiments as a measure of membrane proximal signalling. After lysis of cells TNFR2 was isolated from the lysate using polyclonal goat anti-human TNFR2 antibodies followed by protein G sepharose bead purification. TNFR2 associated TRAF-2 was then measured in immunoblots after running the purified TNFR2 preparation on a SDS-PAGE. In addition, the whole cell lysate was also sampled for the presence of pNFκB using SDS-PAGE and pNFκB specific immunoblots.
• PBMC from 3 three different donors were cultured in 6 well plates with 10×10^6 cells per well in 5 ml of RPMI1640 supplemented with 10% FCS, 1% human serum, HEPES GlutaMAX, 25 U/ml hIL-2 (Roche) and 2 μg/ml PHA-L (Sigma) to grow out T cells • after 3 days cells were resuspended and cultured in 75 cm^2 flasks with the same media as above, but lacking the PHA-L • growth of culture was monitored and media was changed every 3 days.
This is a 2× solution • prepare 500 μl of 10×10^6 NS0-wt cells • After 1 h add 500 μl human T cells (50×10^6 cells/test) in human media at 37° C. T cells were preincubated for 15 min @37° C. with 50 μg/ml 5R16 anti-TNFR1 Fab-PEG to block signalling via TNFR1 prior adding to the NS0 cells. […]

Structure (SMILES)	IC50 [1]	inhibition of activation of NF-κB by activating TNF-R1 antibody (TNF-R1)	inhibition of activation of NF-κB by IL-1β (IL-1β)	TNFR2 specific membrane proximal (TRAF-2 recruitment to TNFR2) and downstream (pNFκB) signalling (TNFR2)
Cc1ccc(C)c(Cn2c(C(O)c3ccncc3)nc3ccccc32)c1 (stereo not shown) [Compound 3]	454 nM			
Cc1ccc(C)c(Cn2c(C(O)c3ccncc3)nc3ccc(-c4cnn(C)c4)cc32)c1 (stereo not shown) [Compound 15]		did not inhibit	did not inhibit	does not impair
